Common to all, as to type: functional
The test system of experiment [1] is Staphylococcus aureus. As to the kind of experiment: Antimicrobial activity against Staphylococcus aureus SH1000 after 24 hrs by agar dilution method. Particulars: SH1000, 24 h.
Experiment [2] has as its system Staphylococcus saprophyticus. As to the kind of experiment: Antimicrobial activity against Staphylococcus saprophyticus ATCC 15305 after 24 hrs by agar dilution method. Particulars: ATCC 15305, 24 h.
The subject of experiment [3] is Staphylococcus aureus. As to the kind of experiment: Antimicrobial activity against Staphylococcus aureus RN4220 after 24 hrs by agar dilution method. As to conditions: RN4220, 24 h.
The subject of experiment [4] is Staphylococcus aureus. As to the kind of experiment: Antimicrobial activity against Staphylococcus aureus RN4220 harboring tetracycline-regulable expression vector pAJ96 after 24 hrs by agar dilution method. Particulars: RN4220, 24 h.
For experiment [5], the system named is Staphylococcus aureus. Description: Antimicrobial activity against Staphylococcus aureus RN4220 harboring tetracycline-regulable expression vector pAJ96 expressing Staphylococcus aureus GyrB gene after 24 hrs by agar dilution method. Particulars: RN4220, 24 h.
The subject of experiment [6] is Staphylococcus aureus. As to the kind of experiment: Antimicrobial activity against Staphylococcus aureus RN4220 harboring tetracycline-regulable expression vector pAJ96 expressing Staphylococcus saprophyticus GyrB gene after 24 hrs by agar dilution method. Particulars: RN4220, 24 h.
The subject of experiment [7] is Staphylococcus aureus. As to the kind of experiment: Antimicrobial activity against Staphylococcus aureus RN4220 harboring tetracycline-regulable expression vector pAJ96 expressing Staphylococcus saprophyticus GyrB G85D mutant gene after 24 hrs by agar dilution method. As to conditions: RN4220, 24 h.
Experiment [8] concerns Staphylococcus aureus. As to the kind of experiment: Antimicrobial activity against Staphylococcus aureus RN4220 harboring tetracycline-regulable expression vector pAJ96 expressing Staphylococcus saprophyticus GyrB K140R mutant gene after 24 hrs by agar dilution method. As to conditions: RN4220, 24 h.
Experiment [9] relates to Staphylococcus aureus. Description: Antimicrobial activity against Staphylococcus aureus RN4220 harboring tetracycline-regulable expression vector pAJ96 expressing Staphylococcus saprophyticus GyrB G85D, K140R mutant gene after 24 hrs by agar dilution method. As to conditions: RN4220, 24 h.
The nature of experiment [10]: Ratio of MIC for Staphylococcus aureus RN4220 harboring tetracycline-regulable expression vector pAJ96 expressing Staphylococcus saprophyticus GyrB gene to MIC for Staphylococcus aureus SH1000.
Experiment [11] can be described thus: Ratio of MIC for Staphylococcus aureus RN4220 harboring tetracycline-regulable expression vector pAJ96 expressing Staphylococcus saprophyticus GyrB gene to MIC for Staphylococcus aureus RN4220.

Values after ≈ are worked out from the molar mass of the structure shown.

With `CO[C@@H]1[C@@H](OC(N)=O)[C@@H](O)[C@H](Oc2ccc3c(O)c(NC(=O)c4ccc(O)c(CC=C(C)C)c4)c(=O)oc3c2C)OC1(C)C` [NOVOBIOCIN], the MIC is 0.125 µg/mL (≈ 0.204 µM) in the experiment with Staphylococcus aureus [1]; 16 µg/mL (≈ 26.1 µM) in [2]; 0.125 µg/mL (≈ 0.204 µM) with Staphylococcus aureus [3]; 0.125 µg/mL (≈ 0.204 µM) against Staphylococcus aureus [4]; 0.125 µg/mL (≈ 0.204 µM) with Staphylococcus aureus [5]; 8 µg/mL (≈ 13.1 µM) in the experiment on Staphylococcus aureus [6]. The minimum inhibitory concentration (MIC) in the experiment with Staphylococcus aureus [7] amounted to 1 µg/mL (≈ 1.63 µM); against Staphylococcus aureus [8], 2 µg/mL (≈ 3.26 µM); in the experiment with Staphylococcus aureus [9], 0.125 µg/mL (≈ 0.204 µM). Besides, the Ratio in experiment [10] and in experiment [11] was 64 each time.

Values taken from ChEMBL document CHEMBL1151427, “Intrinsic novobiocin resistance in Staphylococcus saprophyticus” (2007).
